Measured values reported in PubChem BioAssay (NCI).
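In this assay, cells in 96-well plates receive the compound at five concentrations for 48 hours. Endpoints are linearly interpolated between the surrounding concentrations. TGI marks complete inhibition of growth.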

What was measured:
Experiment in all cases: NCI-60 cell line screen, 48 h
[1] = tested on: 786-0 renal
[2] = tested on: A549 NSCLC
[3] = tested on: ACHN renal
[4] = tested on: BT-549 breast
[5] = tested on: CAKI-1 renal
[6] = tested on: CCRF-CEM leukemia
[7] = tested on: COLO 205 colon
[8] = tested on: DU-145 prostate
[9] = tested on: EKVX NSCLC
[10] = tested on: HCC-2998 colon
[11] = tested on: HCT-116 colon
[12] = tested on: HCT-15 colon
[13] = tested on: HL-60(TB) leukemia
[14] = tested on: HOP-62 NSCLC
[15] = tested on: HS 578T breast
[16] = tested on: HT29 colon
[17] = tested on: IGROV1 ovarian
[18] = tested on: K-562 leukemia
[19] = tested on: KM12 colon
[20] = tested on: LOX IMVI melanoma
[21] = tested on: M14 melanoma
[22] = tested on: MALME-3M melanoma
[23] = tested on: MCF7 breast
[24] = tested on: MDA-MB-231 breast
[25] = tested on: MDA-N
[26] = tested on: MOLT-4 leukemia
[27] = tested on: NCI-H226 lung
[28] = tested on: NCI-H23 lung
[29] = tested on: NCI-H460 lung
[30] = tested on: NCI-H522 lung
[31] = tested on: NCI/ADR-RES ovarian
[32] = tested on: OVCAR-4 ovarian
[33] = tested on: OVCAR-5 ovarian
[34] = tested on: OVCAR-8 ovarian
[35] = tested on: PC-3 prostate
[36] = tested on: RPMI-8226 leukemia
[37] = tested on: RXF 393 renal
[38] = tested on: SF-268 CNS
[39] = tested on: SF-295 CNS
[40] = tested on: SF-539 CNS
[41] = tested on: SK-MEL-2 melanoma
[42] = tested on: SK-MEL-28 melanoma
[43] = tested on: SK-MEL-5 melanoma
[44] = tested on: SK-OV-3 ovarian
[45] = tested on: SN12C renal
[46] = tested on: SNB-19 CNS
[47] = tested on: SNB-75 CNS
[48] = tested on: SR leukemia
[49] = tested on: SW-620 colon
[50] = tested on: T-47D breast
[51] = tested on: TK-10 renal
[52] = tested on: U251 CNS
[53] = tested on: UACC-257 melanoma
[54] = tested on: UACC-62 melanoma
[55] = tested on: UO-31 renal
[56] = tested on: A498 renal
[57] = tested on: HOP-92 NSCLC
[58] = tested on: MDA-MB-435

CC1(C)OC(C(C)(C)O)C(C(C)(C)O)O1 (centres undefined)
TGI [1]: > 100 µM | TGI [2]: > 100 µM | TGI [3]: > 100 µM | TGI [4]: > 100 µM | TGI [5]: > 100 µM | TGI [6]: > 100 µM | TGI [7]: > 100 µM | TGI [8]: > 100 µM | TGI [9]: > 100 µM | TGI [10]: > 100 µM | TGI [11]: > 100 µM | TGI [12]: > 100 µM | TGI [13]: > 100 µM | TGI [14]: > 100 µM | TGI [15]: > 100 µM | TGI [16]: > 100 µM | TGI [17]: > 100 µM | TGI [18]: > 100 µM | TGI [19]: > 100 µM | TGI [20]: > 100 µM | TGI [21]: > 100 µM | TGI [22]: > 100 µM | TGI [23]: > 100 µM | TGI [24]: > 100 µM | TGI [25]: > 100 µM | TGI [26]: > 100 µM | TGI [27]: > 100 µM | TGI [28]: > 100 µM | TGI [29]: > 100 µM | TGI [30]: > 100 µM | TGI [31]: > 100 µM | TGI [32]: > 100 µM | TGI [33]: > 100 µM | TGI [34]: > 100 µM | TGI [35]: > 100 µM | TGI [36]: > 100 µM | TGI [37]: > 100 µM | TGI [38]: > 100 µM | TGI [39]: > 100 µM | TGI [40]: > 100 µM | TGI [41]: > 100 µM | TGI [42]: > 100 µM | TGI [43]: > 100 µM | TGI [44]: > 100 µM | TGI [45]: > 100 µM | TGI [46]: > 100 µM | TGI [47]: > 100 µM | TGI [48]: > 100 µM | TGI [49]: > 100 µM | TGI [50]: > 100 µM | TGI [51]: > 100 µM | TGI [52]: > 100 µM | TGI [53]: > 100 µM | TGI [54]: > 100 µM | TGI [55]: > 100 µM

NCCC1([N+](=O)[O-])C=CN=CC1 (centres undefined)
TGI [1]: > 100 µM | TGI [56]: > 100 µM | TGI [2]: > 100 µM | TGI [3]: > 100 µM | TGI [4]: > 100 µM | TGI [5]: > 100 µM | TGI [6]: > 100 µM | TGI [7]: > 100 µM | TGI [8]: > 100 µM | TGI [9]: > 100 µM | TGI [11]: > 100 µM | TGI [12]: > 100 µM | TGI [13]: > 100 µM | TGI [57]: 26.8 µM | TGI [15]: > 100 µM | TGI [16]: > 100 µM | TGI [17]: > 100 µM | TGI [18]: > 100 µM | TGI [19]: > 100 µM | TGI [21]: > 100 µM | TGI [22]: > 100 µM | TGI [24]: > 100 µM | TGI [58]: > 100 µM | TGI [25]: > 100 µM | TGI [26]: > 100 µM | TGI [27]: > 100 µM | TGI [28]: > 100 µM | TGI [29]: > 100 µM | TGI [30]: > 100 µM | TGI [31]: > 100 µM | TGI [32]: > 100 µM | TGI [33]: > 100 µM | TGI [34]: > 100 µM | TGI [35]: > 100 µM | TGI [36]: > 100 µM | TGI [37]: > 100 µM | TGI [38]: > 100 µM | TGI [39]: > 100 µM | TGI [40]: > 100 µM | TGI [41]: > 100 µM | TGI [42]: > 100 µM | TGI [43]: > 100 µM | TGI [44]: > 100 µM | TGI [45]: > 100 µM | TGI [46]: > 100 µM | TGI [47]: > 100 µM | TGI [48]: > 100 µM | TGI [49]: > 100 µM | TGI [50]: > 100 µM | TGI [51]: > 100 µM | TGI [52]: > 100 µM | TGI [53]: > 100 µM | TGI [54]: > 100 µM | TGI [55]: > 100 µM
